{"source": "patent US20130236568A1", "about": "“PHOSPHAPLATINS HAVING ANTI-ANGIOGENIC, ANTI-METASTATIC, AND PRO-APOPTOTIC PROPERTIES AND USES THEREOF” (Ohio University, priority 2011, published 2013)", "format_in_all_cases": "cell-based, human", "key": {"VEGFR2 gene [1]": {"system": "VEGFR2 gene", "test": "Quantitative real-time PCR, VEGFR2 gene expression in A2780 cells", "description": "(§1) Evaluations of selected gene expressions in Human Umbilical Vein Endothelial Cells (HUVEC) and Human Ovarian Cancer Cells by quantitative reverse transcriptase polymerase chain reaction (PCR)\n(§2) Quantitative real-time PCR experiments were performed to estimate the expression of a selection of targeted genes. HUVEC cells (Lonza Walkersville, Frederick, Md.) were cultured on 0.1% gelatin-coated petri dishes by following standard protocols recommended by the vendor in a humidified incubator by maintaining 5% CO2 at 37° C. Human epithelial ovarian cancer cells (A2780) and cisplatin-resistant cells (A2780/C30) were cultured in RPMI 1640 with or without cisplatin (7 μM) and pyrodach-4 (180 μM) for 0, 3, 12 and 24 hours. […] HUVECs were treated with or without cisplatin (7 μM) or pyrodach-4 (90 or 180 μM) for various durations ranging from 1 hr. to 6 hrs.\n(§3) Both treated and untreated cancer cells were maintained in RPMI 1640 medium with 10% fetal bovine serum, 2 μmol L-glutamine, 100 units/mL penicillin-streptomycin and 0.25 units/mL insulin solution, at 37° C. with 5% CO2. RNA was isolated from both the treated and untreated cells. […] The quantity and purity of RNA were determined by UV spectroscopy (NanoDrop 2000 Thermo Scientific, Wilmington, Del.). A minimum absorbance ratio index (ratio of the absorbance measured at 260 nm over that at 280 nm) of 1.9 was used as an acceptable purity. […] The target gene was labeled with a blue dye (FAM, absorbance: 494 nm, emission: 518 nm) while the reference gene was tagged with a green dye (VIC, absorbance: 538 nm, emission: 554 nm). The cDNA concentrations were selected such that the threshold cycle (Ct) values for the target genes were between 17 and 32, most sensitive for the fluorescence detection by ABI StepOnePlus™ instrument used for the measurements.\n(§4) The threshold cycle number (Ct), the point at which the fluorescence of the qPCR reaction just exceeds the threshold fluorescence of the detection system, was determined. […]"}, "Bcl-2": {"system": "Bcl-2", "test": "Expression of key genes with and without p53 inhibitor (Table 3): Bcl-2", "settings": "positive = manifold increase, negative = decrease vs untreated cells", "description": "as §2\nas §3, with “The cDNA concentrations were selected such that the threshold cycle (Ct) values for the target genes were between 17 and 32, most sensitive for the fluorescence detection by ABI StepOnePlus™ instrument used for the measurements.” left out"}, "VEGFR2 gene [2]": {"system": "VEGFR2 gene", "test": "Quantitative real-time PCR, VEGFR2 gene expression in A2780/C30 cells", "description": "as §1, §2, §3, §4"}, "PUMA [3]": {"system": "PUMA", "test": "Expression of key genes with and without p53 inhibitor (Table 3): PUMA", "settings": "positive = manifold increase, negative = decrease vs untreated cells", "description": "as §2\nas §3, with “The cDNA concentrations were selected such that the threshold cycle (Ct) values for the target genes were between 17 and 32, most sensitive for the fluorescence detection by ABI StepOnePlus™ instrument used for the measurements.” left out"}, "caspase-3": {"system": "caspase-3", "test": "Quantitative real-time PCR, caspase-3 expression in HUVEC", "settings": "HUVEC treated with pyrodach-4", "description": "as §1\n(§5) Quantitative real-time PCR experiments were performed to estimate the expression of a selection of targeted genes. HUVEC cells (Lonza Walkersville, Frederick, Md.) were cultured on 0.1% gelatin-coated petri dishes by following standard protocols recommended by the vendor in a humidified incubator by maintaining 5% CO2 at 37° C. […]\nas §3, with “CO2.” for “CO2. RNA was isolated from both the treated and untreated cells.”, “The cDNA concentrations were selected such that the threshold cycle (Ct) values for the target genes were between 17 and 32, most sensitive for the fluorescence detection by ABI StepOnePlus™ instrument used for the measurements.” left out\nas §4"}, "VEGFR-2": {"system": "VEGFR-2", "test": "Expression of key genes with and without p53 inhibitor (Table 3): VEGFR-2", "settings": "positive = manifold increase, negative = decrease vs untreated cells", "description": "as §2\nas §3, with “The cDNA concentrations were selected such that the threshold cycle (Ct) values for the target genes were between 17 and 32, most sensitive for the fluorescence detection by ABI StepOnePlus™ instrument used for the measurements.” left out"}, "PUMA [4]": {"system": "PUMA", "test": "Quantitative real-time PCR, PUMA expression in HUVEC", "settings": "HUVEC treated with pyrodach-4", "description": "as §1, §5\nas §3, with “CO2.” for “CO2. RNA was isolated from both the treated and untreated cells.”, “The cDNA concentrations were selected such that the threshold cycle (Ct) values for the target genes were between 17 and 32, most sensitive for the fluorescence detection by ABI StepOnePlus™ instrument used for the measurements.” left out\nas §4"}, "Caspase 3": {"system": "Caspase 3", "test": "Expression of key genes with and without p53 inhibitor (Table 3): Caspase 3", "settings": "positive = manifold increase, negative = decrease vs untreated cells", "description": "as §2\nas §3, with “The cDNA concentrations were selected such that the threshold cycle (Ct) values for the target genes were between 17 and 32, most sensitive for the fluorescence detection by ABI StepOnePlus™ instrument used for the measurements.” left out"}, "Caspase 9": {"system": "Caspase 9", "test": "Expression of key genes with and without p53 inhibitor (Table 3): Caspase 9", "settings": "positive = manifold increase, negative = decrease vs untreated cells", "description": "as §2\nas §3, with “The cDNA concentrations were selected such that the threshold cycle (Ct) values for the target genes were between 17 and 32, most sensitive for the fluorescence detection by ABI StepOnePlus™ instrument used for the measurements.” left out"}, "Fas [5]": {"system": "Fas", "test": "Expression of key genes with and without p53 inhibitor (Table 3): Fas", "settings": "positive = manifold increase, negative = decrease vs untreated cells", "description": "as §2\nas §3, with “The cDNA concentrations were selected such that the threshold cycle (Ct) values for the target genes were between 17 and 32, most sensitive for the fluorescence detection by ABI StepOnePlus™ instrument used for the measurements.” left out"}, "FasL [6]": {"system": "FasL", "test": "Expression of key genes with and without p53 inhibitor (Table 3): FasL", "settings": "positive = manifold increase, negative = decrease vs untreated cells", "description": "as §2\nas §3, with “The cDNA concentrations were selected such that the threshold cycle (Ct) values for the target genes were between 17 and 32, most sensitive for the fluorescence detection by ABI StepOnePlus™ instrument used for the measurements.” left out"}, "BAX": {"system": "BAX", "test": "Quantitative real-time PCR, Bax expression in HUVEC", "settings": "HUVEC treated with pyrodach-4", "description": "as §1, §5\nas §3, with “CO2.” for “CO2. RNA was isolated from both the treated and untreated cells.”, “The cDNA concentrations were selected such that the threshold cycle (Ct) values for the target genes were between 17 and 32, most sensitive for the fluorescence detection by ABI StepOnePlus™ instrument used for the measurements.” left out\nas §4"}, "FasL [7]": {"system": "FasL", "test": "Quantitative real-time PCR, FasL expression in HUVEC", "settings": "HUVEC treated with pyrodach-4", "description": "as §1, §5\nas §3, with “CO2.” for “CO2. RNA was isolated from both the treated and untreated cells.”, “The cDNA concentrations were selected such that the threshold cycle (Ct) values for the target genes were between 17 and 32, most sensitive for the fluorescence detection by ABI StepOnePlus™ instrument used for the measurements.” left out\nas §4"}, "Fas [8]": {"system": "Fas", "test": "Quantitative real-time PCR, Fas expression in HUVEC", "settings": "HUVEC treated with pyrodach-4", "description": "as §1, §5\nas §3, with “CO2.” for “CO2. RNA was isolated from both the treated and untreated cells.”, “The cDNA concentrations were selected such that the threshold cycle (Ct) values for the target genes were between 17 and 32, most sensitive for the fluorescence detection by ABI StepOnePlus™ instrument used for the measurements.” left out\nas §4"}}}
{"substance": "trans-(±)-1,2-cyclohexanediamine-trans-dihydroxo(pyrophosphato) platinum(IV) [Pyrodach-4]", "values": [{"measurement": "Normalized expression of VEGFR2 gene", "setting": "VEGFR2 gene [1]; A2780 (cisplatin-sensitive), positive = manifold increase, negative = relative decrease vs untreated cells, cisplatin 7 μM, pyrodach-4 180 μM", "result": "−2.0"}, {"measurement": "Suppression of VEGFR-2 gene expression", "setting": "VEGFR2 gene [1]; cisplatin-sensitive human ovarian cancer cells", "result": "≤ 50", "unit": "%"}, {"measurement": "Expression of Bcl-2", "setting": "Bcl-2; Pyrodach-4 + PFT-α", "result": "−2.0"}, {"measurement": "Expression of Bcl-2", "setting": "Bcl-2; Pyrodach-4 treatment only", "result": 1.0}, {"measurement": "Normalized expression of VEGFR2 gene", "setting": "VEGFR2 gene [2]; A2780/C30 (cisplatin-resistant), positive = manifold increase, negative = relative decrease vs untreated cells, cisplatin 7 μM, pyrodach-4 180 μM", "result": "−2.0"}, {"measurement": "Suppression of VEGFR-2 gene expression", "setting": "VEGFR2 gene [2]; cisplatin-resistant human ovarian cancer cells", "result": "≤ 50", "unit": "%"}, {"measurement": "Expression of PUMA", "setting": "PUMA [3]; Pyrodach-4 + PFT-α", "result": 4.4}, {"measurement": "Expression of PUMA", "setting": "PUMA [3]; Pyrodach-4 treatment only", "result": 16.6}, {"measurement": "Over-expression of caspase-3", "setting": "caspase-3", "result": "2-3 fold"}, {"measurement": "Expression of VEGFR-2", "setting": "VEGFR-2; Pyrodach-4 + PFT-α", "result": "−1.6"}, {"measurement": "Expression of VEGFR-2", "setting": "VEGFR-2; Pyrodach-4 treatment only", "result": "−1.9"}, {"measurement": "Over-expression of PUMA", "setting": "PUMA [4]", "result": "10-15 fold"}, {"measurement": "Expression of Caspase 3", "setting": "Caspase 3; Pyrodach-4 + PFT-α", "result": "−1.2"}, {"measurement": "Expression of Caspase 3", "setting": "Caspase 3; Pyrodach-4 treatment only", "result": 2.6}, {"measurement": "Expression of Caspase 9", "setting": "Caspase 9; Pyrodach-4 + PFT-α", "result": 1.0}, {"measurement": "Expression of Caspase 9", "setting": "Caspase 9; Pyrodach-4 treatment only", "result": 2.0}, {"measurement": "Expression of Fas", "setting": "Fas [5]; Pyrodach-4 + PFT-α", "result": 5.5}, {"measurement": "Expression of Fas", "setting": "Fas [5]; Pyrodach-4 treatment only", "result": 11.0}, {"measurement": "Expression of FasL", "setting": "FasL [6]; Pyrodach-4 + PFT-α", "result": "undetectable"}, {"measurement": "Expression of FasL", "setting": "FasL [6]; Pyrodach-4 treatment only", "result": 4.6}, {"measurement": "Over-expression of Bax", "setting": "BAX", "result": "2-3 fold"}, {"measurement": "Over-expression of FasL", "setting": "FasL [7]", "result": "2-4 fold"}, {"measurement": "Over-expression of Fas", "setting": "Fas [8]", "result": "2-5 fold"}]}
